Test results published in patent US8211875B2, “Local treatment of neurofibromas” (Nexgenix Pharmaceuticals Inc, priority 2005, dated 2012).

Experiments:
[1] = Cell proliferation assay (ATPlite) in a panel of NF1 related cell lines; format: cell-based, human and mouse; conditions: 72 h; read-out: IC50 (concentration required for inhibition of cell proliferation by 50%)
Description: Several physiologically relevant cells or cell lines were employed to measure compound potency in cell proliferation assays. These cells include: (1) NF1-deficient human malignant peripheral nerve sheath tumor (MPNST) cells, (2) Nf1^−/− mouse embryonic Schwann cells, and (3) Nf1- and p53-deficient mouse cell. […] All the other cells are grown in DMEM with 10% fetal bovine serum (FBS).
Various concentrations of each compound/agent to be tested were added to the growing media and the cells were then cultured for 3 days. […] Viable cells were measured by detecting luminescence generated from reaction of ATPlite solution and the ATP in the cells.

[2] = system: Fresh human dermal neurofibroma; test: Ex vivo tumor explant assay, histological score; format: cell-based; conditions: compound added day 1, collected day 3, criterion “+” or more
Description: The efficacy of the compound/agent was tested in an ex vivo tumor explant model as follows. Fresh human dermal neurofibroma was cut into eight small pieces and cultured on standard cell culture plates with medium containing DMEM/F12, 10% FBS, heregulin and forskolin. The pieces were divided into treatment and control groups. Compound at different doses was added to the medium on day 1. No compound was added in the negative control group. All tumor pieces were collected on day 3 and processed for histology by formalin fixation and paraffin embedding. Tissue sections were cut and stained with hematoxylin-eosin for histological analysis. The histological analysis of the paired explant samples was conducted blindly. Three histological parameters were used to score the samples from “−” to “+++”: 1) overall tissue integrity; we evaluate tissue integrity by comparing the cellularity of treated samples to the negative control samples. The low cellularity area was defined as >30% less nucleus than the similar area on the control sample. The photograph of each sample at 40× under a bright field microscopy was take using MagnaFire digital camera (Optronics, USA) and stored in computer. The low cellularity areas in the pictures were measured using Photoshop and calculated as Length×Width, and then expressed as a percentage over the total area of the sample. Overall tissue integrity was scored using 0 to 2+ score. In short, good tissue integrity is scored 0 (<5%), 1+ indicates medium tissue integrity (5-25%), 2+ low tissue integrity (>25%). Only 2+ cases were regarded as positive “+” for the final total score; 2) cell death—slides were evaluated by bright field microscopy. At least 100 cells per view were counted. Cell death was scored semi-quantitatively using the 0 to 3+ score. The absence of condensed or fragmented nucleus is scored 0, 1+ indicates the lowest level of detectable cell death (<10%), 2+ moderate cell death ([…]), and 3+ high cell death (>30%). All 2+ and 3+ cases were regarded as positive “+” for the final total score; and 3) effect on vasculatures.—slides were evaluated by bright field microscopy. The effect on vasculature in treated samples was determined by comparing with the vasculatures in control negative samples. At least 20 vasculatures per sample were counted. Effect on vasculatures was scored semi-quantitatively using the […]. In short, absence or the lowest level of damaged vasculature is scored 0 (<5%), 1+ indicates of some damaged vasculature (5-25%), 2+ high (>25%). All 1+ and 2+ cases were regarded as positive “+” for the final total score. Final histological score was the sum of the scores of the above three parameters, expressed as “−” to “+++”. Any compound with a histological score of “+” or more will be potential good candidates for local treatment of neurofibromas.

[3] = system: cutaneous neurofibromas; test: Proof-of-concept intralesional administration study in NF1 subjects; format: in vivo, human; conditions: intralesional injection once weekly for 4 weeks, all controls showed no change
Source text: The study was a proof-of-concept, prospective, safety and efficacy study of the effect of intralesionally administered drugs given once a week to 3 target cutaneous neurofibromas for 4 consecutive weeks. Six subjects were enrolled. […] All subjects were from 18 to 65 years of age, inclusive. All subjects otherwise were in good health, or had stable concomitant medical conditions appropriately managed by a primary care physician. […] After screening and enrollment, all subjects received a defined volume (based on the size of the lesion) of intralesional drug once weekly into 3 target cutaneous neurofibromas that are 0.5 to 1.5 cm in diameter, inclusive, in its largest dimension. Each target cutaneous neurofibroma was different in size, with one 0.5 to 0.8 cm in diameter, a second between 0.81 to 1.2 cm in diameter, and a third 1.21 to 1.5 cm in diameter. Concomitantly, three control cutaneous neurofibromas found on the torso and/or appendages of the same range in sizes received sterile normal saline. All lesions prior to injection were locally anesthetized with lidocaine 1% and epinephrine 1:100,000. […] Assessment included the exact measured dimensions (in two axes) of the […] assessed lesions. […]

| Compound | IC50 [1] | Final histological score (tissue integrity, cell death, effect on vasculatures) [2] | tumors injected showing partial or complete elimination of the dermal neurofibroma [3] |
| --- | --- | --- | --- |
| CC[C@@]1(O)C(=O)OCc2c1cc1n(c2=O)Cc2cc3ccccc3nc2-1 [Camptothecin] | ≤ 10 µM | – | – |
| O=c1cc(N2CCOCC2)oc2c(-c3ccccc3)cccc12 [LY294002, 2-(4-Morpholinyl)-8-phenyl-4H-1-benzopyran-4-one] | ≤ 10 µM | – | – |
| C=CCNC1=C2C[C@@H](C)C[C@H](OC)[C@H](O)[C@@H](C)/C=C(\C)[C@H](OC(N)=O)[C@@H](OC)/C=C\C=C(/C)C(=O)NC(=CC1=O)C2=O [17-AAG, 17-(Allylamino)-17-demethoxygeldanamycin] | ≤ 10 µM | + | – |
| COc1cc([C@@H]2c3cc4c(cc3[C@H](O)[C@H]3COC(=O)[C@H]23)OCO4)cc(OC)c1OC [Podophyllotoxin] | ≤ 10 µM | + | – |
| O=C([O-])Cc1ccccc1Nc1c(Cl)cccc1Cl.[Na+] [Diclofenac] | – | + | 48% |
| Bleomycin | – | + | – |
| COC(=O)Nc1nc2cc(C(=O)c3ccccc3)ccc2[nH]1 [Mebendazole] | ≤ 10 µM | + | – |
| CC(/C=C/C(=O)NO)=C\[C@@H](C)C(=O)c1ccc(N(C)C)cc1 [Tricostatin A] | ≤ 10 µM | + | – |
| CO[C@H]1C[C@@H]2CC[C@@H](C)[C@@](O)(O2)C(=O)C(=O)N2CCCC[C@H]2C(=O)O[C@H]([C@H](C)C[C@@H]2CC[C@@H](O)[C@H](OC)C2)CC(=O)[C@H](C)/C=C(\C)[C@@H](O)[C@@H](OC)C(=O)[C@H](C)C[C@H](C)/C=C/C=C/C=C/1C [rapamycin, Rapamycin] | ≤ 10 µM | – | – |
| CCN(CC)CCNC(=O)c1c(C)[nH]c(/C=C2\C(=O)Nc3ccc(Cl)cc32)c1C [SU11652, 5-[(Z)-(5-Chloro-2-oxo-1,2-dihydro-3H-indol-3-ylidene)methyl]-N-[2-(diethylamino)ethyl]-2,4-dimethyl-1H-pyrrole-3-carboxamide] | ≤ 10 µM | – | – |
| COc1cc2ncnc(N3CCN(C(=S)NCc4ccc5c(c4)OCO5)CC3)c2cc1OC [KN2941, 4-(6.7-dimethoxy-4-quinazolinyl)-N-(3,4-methylenedioxybenzyl)-1-piperazinethiocarboxamide] | ≤ 10 µM | – | – |
| CC1=C(/C=C/C(C)=C/C=C/C(C)=C/C(=O)Nc2ccc(O)cc2)C(C)(C)CCC1 [Fenretinide] | ≤ 10 µM | + | – |
| COc1cc(/C=C/C(=O)CC(=O)/C=C/c2ccc(O)c(OC)c2)ccc1O [curcumin, Curcumin] | ≤ 10 µM | – | – |
| CCCCCCCCCCCCCCCCOP(=O)([O-])OCC[N+](C)(C)C [miltefosine, Miltefosine] | ≤ 10 µM | – | – |
| N#CC(=C(/N)Sc1ccccc1N)/C(C#N)=C(\N)Sc1ccccc1N [U0126, 1,4-Diamino-2,3-dicyano-1,4-bis(2-aminophenylthio)-butadiene] | ≤ 10 µM | – | – |
| NC(=O)c1cn([C@@H]2O[C@H](CO)C(O)C2O)c2ncnc(N)c12 (stereo partly shown) [Sangivamycin] | ≤ 10 µM | + | – |
| S=P(N1CC1)(N1CC1)N1CC1 [Thiotepa] | ≤ 10 µM | + | – |
| CCCC(CCC)C(=O)O [Valproic acid] | – | + | – |
| Nc1nc(Cl)nc2c1ncn2[C@H]1C[C@H](O)[C@@H](CO)O1 [Cladribine] | ≤ 10 µM | – | – |
| O=C(O[C@@H]1Cc2c(O)cc(O)cc2O[C@@H]1c1cc(O)c(O)c(O)c1)c1cc(O)c(O)c(O)c1 [EGCG, (−)-Epigallocatechin Gallate] | ≤ 10 µM | – | – |
| C[C@@H]1C[C@H]2O[C@@H]2/C=C\C=C\C(=O)Cc2c(Cl)c(O)cc(O)c2C(=O)O1 [radicicol, Radicicol] | ≤ 10 µM | + | – |
| O=c1[nH]cc(F)c(=O)[nH]1 [5-fluorouracil] | ≤ 10 µM | + | – |
| CC1=C(/C=C/C(C)=C/C=C/C(C)=C/C(=O)O)C(C)(C)CCC1 [retinoic acid, 3,7-dimethyl-9-(2,6,6-trimethyl-1-cyclohexenyl)-nona-2,4,6,8-tetraenoic acid] | ≤ 10 µM | – | – |
| Nc1ncnc2c1ccn2[C@@H]1O[C@H](CO)[C@@H](O)[C@H]1O [Tubercidin] | ≤ 10 µM | + | – |
| C[C@H]1c2cccc(O)c2C(=O)C2=C(O)[C@]3(O)C(=O)C(C(N)=O)=C(O)[C@@H](N(C)C)[C@@H]3[C@@H](O)[C@@H]21.Cl [Doxycycline] | ≤ 10 µM | – | 89% |
